Where two headings read alike, the source gives them in different places.
Key:
[1] = test system: Benign Prostatic Hyperplasia; format: in vivo, male patients; conditions: for Clinical Progression of BPH at 12 months of treatment (patients/group) / Clinical Progression of BPH at 12 months of treatment: daily tablet 12 months: Alfuzosine 10 mg, Finasteride 5 mg; for Clinical Progression of BPH at 12 months of treatment (patients/group): combination Finasteride 5 mg + Alfuzosine 5 mg; for Clinical Progression of BPH at 12 months of treatment (patients/group) / Increase in symptoms according to the score from American Association of Urology at 12 months of treatment (patients/group): n=40 per group; for Side Effects / patients who discontinued the treatment: human, in vivo; for Clinical Progression of BPH at 12 months of treatment: combination 5 mg + 5 mg, n=40
Experimental: In this clinical trial several tests were performed wherein Placebo, Finasteride, Alfuzosine and a combination of Finasteride/Alfuzosine were administered to a population of patients diagnosed with Benign Prostatic Hyperplasia.
Said clinical trial was applied in 160 male patients with a 60-year old average, wherein the symptoms manifested according to Urology American Association ranking were scored (score is assigned according to the following criteria: from 0= No symptoms to 35= severe symptoms). […] Finally, vital signs, treatment compliance and side effects were assessed for each of the groups.
(§1) At the beginning and at the end of said clinical trial the following examinations were applied to the patients: digital rectal examination, prostate-specific antigen assessment and urine analysis.
Subjects were randomized and assigned to a double-blind study divided into 4 groups. Randomization was stratified and medicament administration at night. • Group 1 Placebo: Patients received a daily tablet along 12 months. • Group 2 Finasteride: Patients received a daily 5 mg tablet along 12 months. • Group 3 Alfuzosine: Patients received a daily 10 mg tablet along 12 months. • Group 4 Combination: Patients received a tablet with a combination of Finasteride 5 mg and Alfuzosine 5 mg daily along 12 months.

[2] = test system: Benign Prostatic Hyperplasia; conditions: for Incontinence (patients/group) / Invasive Therapy due to BPH (patients/group) / Urinary Retention (patients/group) / Urinary Tract infection (patients/group) / Incontinence / Invasive Therapy due to BPH / Urinary Retention / Urinary Tract infection: 12 months; for Incontinence (patients/group) / Invasive Therapy due to BPH (patients/group) / Urinary Retention (patients/group) / Urinary Tract infection (patients/group) / Incontinence / Invasive Therapy due to BPH / Urinary Retention / Urinary Tract infection / Increase in symptoms according to the score from American Association of Urology at 12 months of treatment / Increase in symptoms according to the score from American Association of Urology at 12 months of treatment (patients/group): same dosing as E17; for Clinical Progression of BPH at 12 months of treatment (patients/group): daily tablet 12 months: Doxazosine titrated 1 to 8 mg, combination Dutasteride 0.5 mg + Doxazosine 1 mg; for Clinical Progression of BPH at 12 months of treatment (patients/group) / Clinical Progression of BPH at 12 months of treatment: Dutasteride 0.5 mg; for Clinical Progression of BPH at 12 months of treatment (patients/group) / Increase in symptoms according to the score from American Association of Urology at 12 months of treatment (patients/group): n=40 per group; for Side Effects / patients who discontinued the treatment: human, in vivo; for Incontinence / Invasive Therapy due to BPH / Urinary Retention / Urinary Tract infection / Clinical Progression of BPH at 12 months of treatment / Increase in symptoms according to the score from American Association of Urology at 12 months of treatment: percent of patients; for Clinical Progression of BPH at 12 months of treatment: Doxazosine titrated 1 to 8 mg, combination 0.5 mg + 1 mg, n=40
Experimental: Said clinical trial was applied in 160 male patients with a 64-year old average, wherein the symptoms manifested according to Urology American Association ranking were scored (score is assigned according to the following criteria: from 0= No symptoms to 35= severe symptoms). […] Finally, vital signs, treatment compliance and side effects were assessed for each of the groups.
as §1
Subjects were randomized and assigned to a double-blind study divided into 4 groups.

[3] = in vivo; cited from earlier work
[4] = test system: plasmatic proteins; conditions: plasma; cited from earlier work
[5] = test system: blood pressure; conditions: after oral administration; cited from earlier work
[6] = test system: prostate size; conditions: cited from earlier work; for reduction of prostate size: Dutasteride daily dosage; for reduces prostate size: stated for the 5α-reductase enzyme inhibitors as a class
[7] = cited from earlier work; for serum concentrations as share of the equilibrium state concentration: daily dosage
[8] = test system: BPH; conditions: cited from earlier work
[9] = percent of patients, 12 months, same dosing as E1
[10] = percent of patients, same dosing as E1

Row | Structure (SMILES) | Incontinence (patients/group) ([1]; 12 months, same dosing as E1) | Invasive Therapy due to BPH (patients/group) ([1]; 12 months, same dosing as E1) | Urinary Tract infection (patients/group) ([1]; 12 months, same dosing as E1) | Clinical Progression of BPH at 12 months of treatment (patients/group) [1] | Side Effects [1] | patients who discontinued the treatment [1] [%] | Incontinence [1, 9] [%] | Invasive Therapy due to BPH [1, 9] [%] | Urinary Tract infection [1, 9] [%] | Clinical Progression of BPH at 12 months of treatment ([1]; percent of patients) [%] | Increase in symptoms according to the score from American Association of Urology at 12 months of treatment [1, 10] [%] | Increase in symptoms according to the score from American Association of Urology at 12 months of treatment (patients/group) ([1]; same dosing as E1) | Incontinence (patients/group) [2] | Invasive Therapy due to BPH (patients/group) [2] | Urinary Retention (patients/group) [2] | Urinary Tract infection (patients/group) [2] | Clinical Progression of BPH at 12 months of treatment (patients/group) [2] | Side Effects [2] | patients who discontinued the treatment [2] [%] | Incontinence [2] [%] | also measured
1 | COc1cc2nc(N(C)CCCNC(=O)C3CCCO3)nc(N)c2cc1OC (stereo not drawn) [Alfuzosine] | 4/40 | 4/40 | 2/40 | 18/40 | dizziness, postural hypotension, asthenia and impotence | 95 | 10 | 10 | 5 | 45 | 47.5 | 19/40 | – | – | – | – | – | – | – | – | Urinary Retention (patients/group) ([1]; 12 months, same dosing as E1): 21/40; Urinary Retention [1, 9]: 52.5%
2 | COc1cc2nc(N3CCN(C(=O)C4COc5ccccc5O4)CC3)nc(N)c2cc1OC (stereo not drawn) [Doxazosine] | – | – | – | – | – | – | – | – | – | – | – | – | 6/40 | 5/40 | 22/40 | 3/40 | 18/40 | dizziness, postural hypotension, and asthenia | 99 | 15 | Invasive Therapy due to BPH [2]: 12.5%; Urinary Retention [2]: 55%; Urinary Tract infection [2]: 7.5%; Clinical Progression of BPH at 12 months of treatment [2]: 45%; Increase in symptoms according to the score from American Association of Urology at 12 months of treatment [2]: 50%; Increase in symptoms according to the score from American Association of Urology at 12 months of treatment (patients/group) [2]: 20/40; share of the dose removed by urine [3]: 9%; bound to plasmatic proteins [4]: 98-99%; duration of hypotensive effects (remaining active) [5]: at least 24 hours; time at which hypotensive effects are observed [5]: 2 h
3 | C[C@]12C=CC(=O)N[C@@H]1CC[C@@H]1[C@@H]2CC[C@]2(C)[C@@H](C(=O)Nc3cc(C(F)(F)F)ccc3C(F)(F)F)CC[C@@H]12 [Dutasteride] | – | – | – | – | – | – | – | – | – | – | – | – | 5/40 | 2/40 | 15/40 | 1/40 | 11/40 | erectile dysfunction, libido decrease and/or abnormal ejaculation | 60 | 12.5 | Invasive Therapy due to BPH [2]: 5%; Urinary Retention [2]: 37.5%; Urinary Tract infection [2]: 2.5%; Clinical Progression of BPH at 12 months of treatment [2]: 27.5%; Increase in symptoms according to the score from American Association of Urology at 12 months of treatment [2]: 35%; Increase in symptoms according to the score from American Association of Urology at 12 months of treatment (patients/group) [2]: 14/40; reduction of prostate size ([6]; in some patients): up to 50%; reduction of prostate size [6]: at least 20%; reduces prostate size [6]: up to 50%; half-life in blood ([7]; blood): 3-5 weeks; serum concentrations as share of the equilibrium state concentration ([7]; after one month): 65%; serum concentrations as share of the equilibrium state concentration ([7]; after three months): approximately 90%
4 | CC(C)(C)NC(=O)[C@H]1CC[C@H]2[C@@H]3CC[C@H]4NC(=O)C=C[C@]4(C)[C@H]3CC[C@]12C [Finasteride] | 3/40 | 2/40 | 1/40 | 13/40 | erectile dysfunction, libido decrease and/or abnormal ejaculation | 45 | 7.5 | 5 | 2.5 | 32.5 | 37.5 | 15/40 | – | – | – | – | – | – | – | – | Incidence of side effects during Finasteride treatment ([8]; most common: erectile dysfunction, decrease in ejaculated semen volume): about 3%; reduction in DHT concentration in blood and in prostate gland ([8]; patients who suffer BPH): ≤ 30%; reduction of prostate-specific antigen (PSA) serum levels ([8]; patients who suffer BPH): up to 50%; efficacy in an analysis of six clinical studies ([8]; when prostate weighed >40 g, Logan YT, Belgeri MT 2005): very effective; reduces prostate size [6]: up to 50%

— patent publication EP2156836A1, “[…] PHARMACEUTICAL COMPOSITIONS CONSISTING OF A COMBINATION OF A 5 alpha-REDUCTASE ENZYME INHIBITOR AND A 1 alpha- […] RECEPTOR ANTAGONIST” (priority 2007, dated 2008)
